Molecules are shown by their SMILES.

Drawing on ChEMBL document CHEMBL2074256, “HIV protease inhibitors are inhibitors but not substrates of the human breast cancer resistance protein (BCRP/ABCG2)” (J Pharmacol Exp Ther, 2004), this text covers IC50 for two molecules.

The target of the assay is T1, Broad substrate specificity ATP-binding cassette transporter ABCG2 (Homo sapiens, UniProt Q9UNQ0).
T1 sequence (Q9UNQ0 whole entry): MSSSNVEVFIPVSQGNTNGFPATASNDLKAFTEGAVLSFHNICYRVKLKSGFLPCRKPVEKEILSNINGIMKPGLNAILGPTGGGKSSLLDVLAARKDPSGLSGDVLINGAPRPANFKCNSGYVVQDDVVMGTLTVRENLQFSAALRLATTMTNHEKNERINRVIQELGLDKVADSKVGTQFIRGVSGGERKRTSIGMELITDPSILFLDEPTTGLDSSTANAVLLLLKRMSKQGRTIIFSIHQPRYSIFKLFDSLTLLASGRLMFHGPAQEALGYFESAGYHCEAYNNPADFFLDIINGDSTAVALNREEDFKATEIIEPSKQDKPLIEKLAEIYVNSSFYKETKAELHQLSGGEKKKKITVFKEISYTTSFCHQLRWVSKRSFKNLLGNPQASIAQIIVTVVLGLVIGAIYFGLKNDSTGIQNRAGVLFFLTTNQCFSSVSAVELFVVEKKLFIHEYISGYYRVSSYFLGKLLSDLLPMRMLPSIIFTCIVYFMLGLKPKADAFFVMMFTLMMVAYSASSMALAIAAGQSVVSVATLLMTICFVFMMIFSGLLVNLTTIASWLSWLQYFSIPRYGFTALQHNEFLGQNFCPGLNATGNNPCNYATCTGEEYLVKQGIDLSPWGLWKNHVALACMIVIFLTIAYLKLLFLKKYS
Briefly: TP_TRANSPORTER: increase in mitoxantrone intracellular accumulation in BCRP-expressing HEK cells. It counts as functional, cell-based, HEK293.

In turn, `CC(C)(C)NC(=O)[C@@H]1C[C@@H]2CCCC[C@@H]2CN1C[C@@H](O)[C@H](Cc1ccccc1)NC(=O)[C@H](CC(N)=O)NC(=O)c1ccc2ccccc2n1` came in with an IC50 of 19.5 µM.

Consider `Cc1c(O)cccc1C(=O)N[C@@H](CSc1ccccc1)[C@H](O)CN1C[C@H]2CCCC[C@H]2C[C@H]1C(=O)NC(C)(C)C`, for which the concentration for half-maximal inhibition (IC50) amounted to 12.5 µM.

Broadly, the IC50 is the midpoint of a concentration-inhibition curve. High values mean lower potency, low ones higher potency.
